# Counter-ions that a name gives are not always drawn. Like-named read-outs stand apart in the source and are kept apart here.
# Legend:
# Pseudomonas aeruginosa B = experiment: In vitro MIC, Agar Well Diffusion Method; type: cell-based; settings: read-out: In Vitro MIC
# Procedure: (§1) In vitro antimicrobial activity was determined in BBL seed agar. Serial dilutions of the test compound were pipetted into agar wells (80 μL per well). […] For reference, see A. H. Litton, Antibiotics: Assessment of Antimicrobial Activity and Resistance, Academic Press, New York, pages 19-30 (1983).
# [1] = tested on: Streptococcus faecium ATCC 8043; experiment: In vitro MIC, Agar Well Diffusion Method; type: cell-based; settings: Enterococcus faecium
# Procedure: as §1
# Proteus vulgaris 101N = experiment: In vitro MIC, Agar Well Diffusion Method; type: cell-based; settings: read-out: In Vitro MIC
# Procedure: as §1
# [2] = tested on: Pseudomonas aeruginosa 56; experiment: In vitro MIC, Agar Well Diffusion Method; type: cell-based
# Procedure: as §1
# Micrococcus luteus PCl = experiment: In vitro MIC, Agar Well Diffusion Method; type: cell-based; settings: read-out: In Vitro MIC
# Procedure: as §1
# [3] = tested on: Enterobacter cloacae 2952B; experiment: In vitro MIC, Agar Well Diffusion Method; type: cell-based; settings: read-out: In Vitro MIC
# Procedure: as §1
# Escherichia coli 1269B = experiment: In vitro MIC, Agar Well Diffusion Method; type: cell-based; settings: read-out: In Vitro MIC
# Procedure: as §1
# [4] = tested on: Klebsiella pneumoniae 369; experiment: In vitro MIC, Agar Well Diffusion Method; type: cell-based
# Procedure: as §1
# Serratia marcescens SM [5] = experiment: In vitro MIC, Agar Well Diffusion Method; type: cell-based; settings: read-out: In Vitro MIC
# Procedure: as §1
# Streptococcus 82 = experiment: In vitro MIC, Agar Well Diffusion Method; type: cell-based, Streptococcus aureus
# Procedure: as §1
# [6] = tested on: Streptococcus faecalis ATCC 29212; experiment: In vitro MIC, Broth Dilution Method; type: cell-based; settings: Enterococcus faecalis, ATCC29212; Broth Dilution Method; Streptococcus faecalis ATCC 29212; read-out: In Vitro MIC
# Procedure: (§2) The diluted agents prepared in Mueller-Hinton broth were dispensed from a Dynatech MIC 2000 machine, in 100 microliter (μL) volumes into 96 well trays and used immediately or frozen at -10° to -70° C. until needed. Using a Dynatech inoculator and inoculum trays, 1.5 μL of a 10^-2 dilution of an overnight culture was added to each well of the tray. The tops of the trays were then sealed with tape, and the trays were incubated overnight at 37° C. and then examined with a viewer. The lowest concentration at which no growth was observed was considered to be the minimum inhibitory concentration (MIC).
# Escherichia coli 4 = experiment: In vitro MIC, Broth Dilution Method; type: cell-based
# Procedure: as §2
# [7] = tested on: Staphylococcus aureus ATCC 29213; experiment: In vitro MIC, Broth Dilution Method; type: cell-based
# Procedure: as §2
# Proteus mirabilis 90 = experiment: In vitro MIC, Broth Dilution Method; type: cell-based
# Procedure: as §2
# [8] = tested on: Enterobacter cloacae 5699; experiment: In vitro MIC, Broth Dilution Method; type: cell-based
# Procedure: as §2
# Klebsiella pneumoniae A = experiment: In vitro MIC, Broth Dilution Method; type: cell-based; settings: read-out: In Vitro MIC
# Procedure: as §2
# [9] = tested on: Proteus vulgaris ATCC 6380; experiment: In vitro MIC, Broth Dilution Method; type: cell-based; settings: Proteus vulgaris, ATCC6380, read-out: In Vitro MIC
# Procedure: as §2
# Proteus mirabilis 2 = experiment: In vitro MIC, Broth Dilution Method; type: cell-based
# Procedure: as §2
# [10] = tested on: Streptococcus pneumoniae 6301; experiment: In vitro MIC, Broth Dilution Method; type: cell-based; settings: Broth Dilution Method; Streptococcus pneumoniae 6301; read-out: In Vitro MIC
# Procedure: as §2
# Escherichia coli TEM-1 = experiment: In vitro MIC, Broth Dilution Method; type: cell-based; settings: TEM1, read-out: In Vitro MIC
# Procedure: as §2
# [11] = tested on: Pseudomonas aeruginosa ATCC 27853; experiment: In vitro MIC, Broth Dilution Method; type: cell-based; settings: ATCC27853; Broth Dilution Method; Pseudomonas aeruginosa ATCC 27853; read-out: In Vitro MIC
# Procedure: as §2
# [12] = tested on: Staphylococcus aureus Smith; experiment: In vitro MIC, Broth Dilution Method; type: cell-based; settings: read-out: In Vitro MIC
# Procedure: as §2
# Enterobacter cloacae P99 = experiment: In vitro MIC, Broth Dilution Method; type: cell-based; settings: P99, read-out: In Vitro MIC
# Procedure: as §2
# [13] = tested on: Citrobacter freundii BS-16; experiment: In vitro MIC, Broth Dilution Method; type: cell-based; settings: BS16; Broth Dilution Method; Citrobacter freundii BS-16; read-out: In Vitro MIC
# Procedure: as §2
# [14] = tested on: Pseudomonas aeruginosa Stone 130; experiment: In vitro MIC, Broth Dilution Method; type: cell-based
# Procedure: as §2
# Serratia marcescens SM [15] = experiment: In vitro MIC, Broth Dilution Method; type: cell-based; settings: read-out: In Vitro MIC
# Procedure: as §2
# [16] = Agar Well Diffusion Method, Pseudomonas aeruginosa B
# [17] = ATCC8043, Agar Well Diffusion Method, Streptococcus faecium ATCC 8043, read-out: In Vitro MIC
# [18] = Agar Well Diffusion Method, Proteus vulgaris 101N
# [19] = Agar Well Diffusion Method, Pseudomonas aeruginosa 56, read-out: In Vitro MIC
# [20] = Agar Well Diffusion Method, Micrococcus luteus PCl
# [21] = Agar Well Diffusion Method, Enterobacter cloacae 2952B
# [22] = Agar Well Diffusion Method, Escherichia coli 1269B
# [23] = Agar Well Diffusion Method, Klebsiella pneumoniae 369, read-out: In Vitro MIC
# [24] = Agar Well Diffusion Method, Serratia marcescens SM
# [25] = Agar Well Diffusion Method, Streptococcus aureus 82, read-out: In Vitro MIC
# [26] = Escherichia coli, 4, read-out: In Vitro MIC
# [27] = ATCC29213, Broth Dilution Method, Staphylococcus aureus ATCC 29213, read-out: In Vitro MIC
# [28] = Broth Dilution Method, Proteus mirabilis 90, read-out: In Vitro MIC
# [29] = Proteus mirabilis, 2, read-out: In Vitro MIC
# [30] = Broth Dilution Method, Serratia marcescens SM
# [31] = Enterobacter cloacae, 5699, read-out: In Vitro MIC
# [32] = Broth Dilution Method, Klebsiella pneumoniae A
Structure (SMILES),MIC (Pseudomonas aeruginosa B; [16]) [µg/mL],"MIC [1, 17] [µg/mL]",MIC (Proteus vulgaris 101N; [18]) [µg/mL],"MIC [2, 19] [µg/mL]",MIC (Micrococcus luteus PCl; [20]) [µg/mL],"MIC [3, 21] [µg/mL]",MIC (Escherichia coli 1269B; [22]) [µg/mL],"MIC [4, 23] [µg/mL]",MIC (Serratia marcescens SM [5]; [24]) [µg/mL],MIC (Streptococcus 82; [25]) [µg/mL],MIC [6] [µg/mL],MIC (Escherichia coli 4; [26]) [µg/mL],MIC [9] [µg/mL],MIC (Proteus mirabilis 2; [29]) [µg/mL],MIC (Escherichia coli TEM-1) [µg/mL],MIC [11] [µg/mL],MIC (Enterobacter cloacae P99) [µg/mL],MIC [13] [µg/mL],MIC (Serratia marcescens SM [15]; [30]) [µg/mL],"MIC [8, 31] [µg/mL]",other results
"CC1(C)S[C@@H]2[C@H](N=CN3CCN(c4c(F)cc5c(=O)c(C(=O)O)cn(CCF)c5c4F)CC3)C(=O)N2[C@H]1C(=O)O [Compound D, 2R-(2α,5α,6β)]-7-[4-[[(2-Carboxy-3,3-dimethyl-7-oxo-4-thia-1-azabicyclo[3.2.0]hept-6-yl)amino]-methylene]-1-piperazinyl]-6,8-difluoro-1-(2-fluoroethyl)-1,4-dihydro-4-dihydro-4-oxo-3-quinoline-carboxylic acid monosodium salt]",15.6,15.6,1.95,7.8,15.6,7.8,1.95,7.8,31.3,3.9,32,0.125,0.063,0.125,0.125,2,0.125,1,0.25,,"MIC [7, 27]: 4 µg/mL; MIC (Proteus mirabilis 90; [28]): 1 µg/mL; MIC ([8]; Broth Dilution Method, Enterobacter cloacae 5699, read-out: In Vitro MIC): 0.25 µg/mL; MIC (Klebsiella pneumoniae A; Klebsiella pneumoniae): 0.125 µg/mL; MIC [10]: 2 µg/mL; MIC ([12]; Staphylococcus aureus): 0.5 µg/mL; MIC ([14]; STONE130, Broth Dilution Method, Pseudomonas aeruginosa Stone 130, read-out: In Vitro MIC): 4 µg/mL"
"CCn1cc(C(=O)[O-])c(=O)c2cc(F)c(N3CCN(C=N[C@H]4CN(S(=O)(=O)[O-])C4=O)CC3)cc21.[Na+].[Na+] [Compound E, (S)-1-Ethyl-6-fluoro-1,4-dihydro-4-oxo-7-[4-[[(1-sulfo-2-oxo-3-azetidinyl)imino]methyl]-1-piperazinyl]-3-quinolinecarboxylic acid disodium salt]",,,,,,,,,,,,0.125,0.031,0.063,0.063,,0.063,,,0.125,"MIC (Pseudomonas aeruginosa B; Pseudomonas aeruginosa): 3.9 µg/mL; MIC ([1]; ATCC8043, read-out: In Vitro MIC): > 125 µg/mL; MIC (Proteus vulgaris 101N; Proteus vulgaris, 101N): 1.95 µg/mL; MIC ([2]; Pseudomonas aeruginosa, 56, read-out: In Vitro MIC): 7.8 µg/mL; MIC (Micrococcus luteus PCl; Micrococcus luteus): > 125 µg/mL; MIC ([3]; Enterobacter cloacae, 2952B): 31.3 µg/mL; MIC (Escherichia coli 1269B; Escherichia coli, 1269B): 7.8 µg/mL; MIC ([4]; Klebsiella pneumoniae, 369, read-out: In Vitro MIC): 3.9 µg/mL; MIC (Serratia marcescens SM [5]; Serratia marcescens): 3.9 µg/mL; MIC (Streptococcus 82; Streptococcus, 82, read-out: In Vitro MIC): 15.6 µg/mL; MIC ([7]; Staphylococcus aureus, ATCC29213, read-out: In Vitro MIC): 2 µg/mL; MIC (Proteus mirabilis 90; Proteus mirabilis, 90, read-out: In Vitro MIC): 0.063 µg/mL; MIC (Klebsiella pneumoniae A; Klebsiella pneumoniae): 0.125 µg/mL; MIC ([12]; Staphylococcus aureus): 0.5 µg/mL; MIC ([14]; Pseudomonas aeruginosa, STONE130, read-out: In Vitro MIC): 1 µg/mL; MIC (Serratia marcescens SM [15]; Serratia marcescens): 0.063 µg/mL"
"CCn1cc(C(=O)O)c(=O)c2cc(F)c(N3CCN(C=N[C@@H]4C(=O)N5C(C(=O)O)=C(C)CS[C@H]45)CC3)cc21 [Compound C, 6R-[6α,7β(E(]]-7-[4-[[(2-Carboxy-3-methyl-8-oxo-5-thia-1-azabicyclo[4.2.0]oct-2-en-7-yl)imino]-methyl]-1-piperazinyl]-1-ethyl-6-fluoro-1,4-dihydro-4-oxo-3-quinolinecarboxylic acid disodium salt]",3.9,500,0.98,3.9,250,7.8,3.9,3.9,3.9,15.6,8,,0.063,0.063,0.063,2,0.125,0.25,0.125,0.063,"MIC (Escherichia coli 4; Broth Dilution Method, Escherichia coli 4, read-out: In Vitro MIC): 0.125 µg/mL; MIC [7, 27]: 1 µg/mL; MIC (Proteus mirabilis 90; [28]): 0.25 µg/mL; MIC (Klebsiella pneumoniae A; [32]): 0.125 µg/mL; MIC [10]: 8 µg/mL"
"CCn1cc(C(=O)O)c(=O)c2cc(F)c(N3CCN(C=N[C@@H]4C(=O)N5[C@@H]4SC(C)(C)[C@@H]5C(=O)O)CC3)cc21 [Compound B, [2S-(2α,5α,6β)]-7-[4-[[[2-(Carboxy)-3,3-dimethyl-7-oxo-4-thia-1-azabicyclo[3.2.0]hept-6-yl]imino]methyl]-1-piperazinyl]-1-ethyl-6-fluoro-1,4-dihydro-4-oxo-3-quinolinecarboxylic acid monosodium salt]",7.8,62.5,1.95,7.8,31.3,15.6,0.98,3.9,62.5,7.8,2,,0.063,,0.031,8,0.063,0.25,0.125,0.063,"MIC (Klebsiella pneumoniae A; [32]): 0.125 µg/mL; MIC (Proteus mirabilis 2; Broth Dilution Method, Proteus mirabilis 2, read-out: In Vitro MIC): 0.125 µg/mL; MIC ([12]; Broth Dilution Method, Staphylococcus aureus Smith): 0.25 µg/mL"

# From patent US5159077A, “Penam antibacterial compounds” (Hoffmann-La Roche Inc., priority 1989, dated 1992)
